Measured values taken from ChEMBL document CHEMBL3875224, “Synthesis, docking, cytotoxicity, and LTA4H inhibitory activity of new gingerol derivatives as potential colorectal cancer therapy” (Bioorg Med Chem, 2017).

Tests used:
[1] = Cytotoxicity against human HCT116 cells assessed as reduction in cell viability after 48 hrs by WST1 assay; format: functional, cell-based; details: HCT-116, 48 h
[2] = target: T1, Leukotriene A-4 hydrolase (Homo sapiens, UniProt P09960); assay: Inhibition of recombinant C-terminal His-tagged human LTA4H epoxide hydrolase activity expressed in Escherichia coli assessed as reduction in LTB4 production using LTA4 as substrate preincubated for 20 mins followed by substrate addition measured after 30 mins by enzyme immunoassay
T1 sequence (P09960 whole entry): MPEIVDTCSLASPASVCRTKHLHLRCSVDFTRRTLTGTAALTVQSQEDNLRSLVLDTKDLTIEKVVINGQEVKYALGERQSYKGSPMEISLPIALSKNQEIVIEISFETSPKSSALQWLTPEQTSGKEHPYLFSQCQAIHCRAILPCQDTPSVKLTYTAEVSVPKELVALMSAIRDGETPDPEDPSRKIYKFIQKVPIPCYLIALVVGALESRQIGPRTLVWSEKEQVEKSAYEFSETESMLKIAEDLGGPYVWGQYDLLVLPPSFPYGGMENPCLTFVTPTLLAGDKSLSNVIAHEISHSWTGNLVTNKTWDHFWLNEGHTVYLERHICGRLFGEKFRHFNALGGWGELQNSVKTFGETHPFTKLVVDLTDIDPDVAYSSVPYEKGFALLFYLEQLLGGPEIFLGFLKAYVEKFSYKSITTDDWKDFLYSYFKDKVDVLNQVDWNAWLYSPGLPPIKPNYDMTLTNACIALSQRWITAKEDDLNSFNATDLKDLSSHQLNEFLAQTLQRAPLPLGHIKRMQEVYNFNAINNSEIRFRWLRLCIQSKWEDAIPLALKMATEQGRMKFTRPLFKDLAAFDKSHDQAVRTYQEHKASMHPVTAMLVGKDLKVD

[3] = target: T1, Leukotriene A-4 hydrolase; assay: Inhibition of recombinant C-terminal His-tagged human LTA4H aminopeptidase activity expressed in Escherichia coli using L-alanine-4-nitro-anilide hydrochloride as substrate preincubated for 20 mins followed by substrate addition
[4] = Cytotoxicity against human HF19 cells assessed as reduction in cell viability after 48 hrs by WST1 assay; format: toxicity, cell-based
[5] = Cytotoxicity against human TIG1 cells assessed as reduction in cell viability after 48 hrs by WST1 assay; format: toxicity, cell-based
[6] = system: HCT-116; assay: Selectivity index, ratio of IC50 for human TIG1 cells to IC50 for human HCT116 cells; format: functional

| Structure (SMILES) | IC50 [1] [µM] | IC50 [2] [µM] | IC50 [3] [µM] | IC50 at 48 h [4] [µM] | IC50 at 48 h [5] [µM] | Ratio IC50 [6] |
| --- | --- | --- | --- | --- | --- | --- |
| CCCCCC(O)CC(=O)CCc1ccc(O)c(OC)c1 (configuration not stated) | 45.1 | 58.3 | 56.1 | > 100 | 75.2 | 1.67 |
| CCCCCC(CC(=O)CCc1ccc(O)c(OC)c1)OC (configuration not stated) | > 100 | > 100 | > 100 | > 100 | > 100 |  |
| CCCC(O)CC(=O)CCc1ccc(O)c(OC)c1 (configuration not stated) | > 100 | > 100 | > 100 | > 100 | > 100 |  |
| CCCCCCCCCC(O)CC(=O)CCc1ccc(O)c(OC)c1 (configuration not stated) | 33.4 | 15.2 | 21.6 | > 100 | > 100 | 3 |
| CCCCCCCC(O)CC(=O)CCc1ccc(O)c(OC)c1 (configuration not stated) | > 100 | > 100 | > 100 | 77.6 | 55.6 | 0.55 |
| Nc1nc(-c2ccc(Cc3ccccc3)cc2)cs1 | 30.5 | 12.4 | 7.61 | > 100 | 84.3 | 2.76 |
| CCCCC/C=C/CCC(O)CC(=O)CCc1ccc(O)c(OC)c1 (configuration not stated) | 46 | 67.1 | 45.6 | 97.5 | > 100 | 2.17 |
| CCCCCC(O)CC(=O)CCc1cc(OC)c(O)c(-c2cc(CCC(=O)CC(O)CCCCC)cc(OC)c2O)c1 (configuration not stated) | > 100 | 77.8 | > 100 | 54.8 | 63.1 | 0.63 |
| COc1ccc(CCC(C)=O)cc1OC | > 100 | > 100 | > 100 | > 100 | > 100 |  |
| CCCCC/C=C/C(=O)CCc1ccc(OC)c(OC)c1 | 1.54 | 11.3 | 4.92 | > 100 | 80.6 | 52.3 |
| CCCCCC(O)CC(=O)CCc1ccc(OCC=C(C)C)c(OC)c1 (configuration not stated) | 21.5 | 7.25 | 3.01 | > 100 | 83.2 | 3.87 |
| CC(C)=CCCC(C)[C@H]1CC=C(C)C(O)[C@H]1O (some centres not stated) | > 100 | > 100 | > 100 | > 100 | > 100 | 1 |
| CCCCC/C=C/C(=O)CCc1ccc(OC(C)=O)c(OC)c1 | 26.9 | 29.5 | 9.31 | > 100 | > 100 | 3.72 |
| CCCCCC(CC(=O)CCc1ccc(OC(C)=O)c(OC)c1)OC(C)=O (configuration not stated) | 30.9 | 27.6 | 22.1 | > 100 | > 100 | 3.23 |
| CCCCCC(O)CC(=O)CCc1ccc(OC)c(OC)c1 (configuration not stated) | 76.5 | > 100 | > 100 | 88.4 | 92.8 | 1.21 |
| C=CCOc1ccc(CCC(=O)CC(O)CCCCC)cc1OC (configuration not stated) | > 100 | 66.4 | 56.3 | > 100 | 64.6 | 0.65 |
| CCCCCC(CC(=O)CCc1ccc(OC)c(OC)c1)OC (configuration not stated) | > 100 | > 100 | > 100 | > 100 | > 100 |  |
| CCCCC/C=C/C(=O)CCc1ccc(O)c(OC)c1 [SHOGAOL] | 12.9 | 24.6 | 12.5 | > 100 | > 100 | 7.77 |
| CC(C)C[C@H](NC(=O)[C@@H](O)[C@H](N)Cc1ccccc1)C(=O)O [UBENIMEX] | 42.5 |  |  | 89.5 | 77.8 |  |
